The values below come from US11261175B2 (priority 2017, dated 2022).

Holding throughout (assay type): cell-based
Assay [1] has as its system HCV genotype 1b replicon with NS5A Y93H mutation. Briefly: Transiently transfected assay of genotype 1b resistance mutant RNA Y93H. The settings on record: Hepatitis C virus, Huh-7.5.1, 72 h, read-out: HCV Mutation Y93H. From the text: (§1) <Experimental Example 3> Transiently Transfected Assay of Genotype 1b Resistance Mutant RNAs
(§2) Replicon genomes substituted with Y93H, L31V and L31V+Y93H (double mutant), the resistance mutants to Daclatasvir with mutations at the NS5A protein domain 1.
(§3) These HCV resistance mutant genomes were linearized with scal restriction enzyme, and then the mutated HCV RNA was synthesized through in vitro transcription. Huh 7.5.1 cells were individually electroporated with HCV RNA with resistant mutations and plated in a 12 well plate. After 4 hours, Huh7.5.1 cells were seeded in DMEM containing the compounds of examples serially diluted for 3 days. Three days later, the cells were harvested and the intracellular luciferase activity was measured. The luciferase activity was normalized with those obtained from the negative control cells (mock-treated cells).

Assay [2] concerns HCV replicon S52-Feo (genotype 3a). Description: Anti-HCV activity using HCV replicon S52-Feo (genotype 3a) in Huh 7.5.1 cells, luciferase readout. The conditions noted are these: Hepatitis C virus, 72 h; Huh 7.5.1 cells with S52-Feo replicon, 3 days, firefly luciferase; read-out: HCV wt. GT-3a. On the technique in general: A replicon is a self-replicating genome or part of one, used to study replication in cells.

Assay [3] concerns HCV genotype 1b replicon with NS5A L31V mutation. Description: Transiently transfected assay of genotype 1b resistance mutant RNA L31V. The conditions noted are these: Hepatitis C virus, Huh-7.5.1, 72 h, read-out: HCV Mutation L31V.
Text: as §1, §2, §3

In assay [4] the test system is JFH5a-Rluc-ad34 virus (HCV GT-2a). Description: Anti-HCV activity using HCVcc (JFH5a-Rluc-ad34 virus) in Huh 7.5.1 cells, Renilla luciferase readout. The settings on record: Hepatitis C virus, GT2A, Huh-7.5.1, 72 h, read-out: HCV wt. GT-2a. As to the method:
<Experimental Example 1> Measurement of Anti-HCV Activity of Compounds of Examples Using HCVcc
Step 1: Cell Line and Cell Culture
Huh 7.5.1 cells were grown in Dulbecco's Modified Eagle's medium (DMEM; Gibco) supplemented with antibiotics (100 U/mL penicillin, 10 μg/mL streptomycin) and 10% heat-inactivated fetal bovine serum (ΔFBS; PEAK) in a CO2 incubator at 37° C. with […].
Huh7.5.1 cells were transfected with in vitro transcription RNA of JFH5a-Rluc-ad34, a derivative of JFH1 with adaptive mutations in E2 and p7 regions, by electroporation. JFH5a-Rluc-ad34 virus contains Renilla luciferase (Rluc), which is convenient for virus proliferation assay. The cell culture medium containing HCV was collected 3-5 days after the electroporation and then filtered through a […] pore size filter.
Step 3: Antiviral Activity Test Using Infectious HCV Particles
Huh 7.5.1 cells were inoculated with JFH5a-Rluc-ad34 virus and incubated for 4 hours. Four hours after the virus inoculation, the Huh7.5.1 cells infected with HCV were cultured in the medium containing the compound of examples serially diluted. Three days later, the cells were harvested and the intracellular luciferase activity was measured using Renilla luciferase assay system (Promega). Finally, the luciferase activity was normalized with those obtained from the negative control cells (mock-treated cells).

Assay [5] has as its system HCV genotype 1b replicon with NS5A L31V+Y93H (double mutant). Briefly: Transiently transfected assay of genotype 1b resistance mutant RNA L31V+Y93H (double mutant). The conditions noted are these: Hepatitis C virus, Huh-7.5.1, 72 h, read-out: HCV Mutation L31V + Y93H.
Text: as §1, §2, §3

Assay [6] concerns HCV replicon NK5.1-Gluc (genotype 1b). Briefly: Anti-HCV activity using HCV replicon NK5.1-Gluc (genotype 1b) in Huh 7.5.1 cells, luciferase readout. The settings on record: Hepatitis C virus, 72 h; Huh 7.5.1 cells with NK5.1-Gluc replicon, 3 days, Gaussia luciferase; read-out: HCV wt. GT-1b.

`CCCCC1(CCCC)c2cc(NC(=O)[C@@H]3CCCN3C(=O)[C@H](NC(=O)OC)c3ccccc3)ccc2-c2ccc(NC(=O)[C@@H]3CC(=O)CN3C(=O)[C@H](NC(=O)OC)c3ccccc3)cc21` [Example 10, methyl ((R)-2-((S)-2-((9,9-dibutyl-7-((S)-1-((R)-2-((methoxycarbonyl)amino)-2-phenylacetyl)pyrrolidine-2-carboxyamido)-9H-fluorene-2-yl)carbamoyl)-4-oxopyrrolidine-1-yl)-2-oxo-1-phenylethyl)carbamate]: the EC50 in assay [1] is 0.1 to 1 nM; in assay [2] it was 0.01 to 0.1 nM; in assay [3], 0.001 to 0.01 nM; in assay [4], 0.1 to 1 nM; in assay [5] it was 1 to 100 nM; in assay [6], 0.001 to 0.01 nM.
For the compound `CCCCC1(CCCC)c2cc(NC(=O)[C@@H]3C[C@H](COC)CN3C(=O)[C@H](NC(=O)OC)c3ccccc3)ccc2-c2ccc(-c3cnc([C@@H]4CCCN4C(=O)[C@@H](NC(=O)OC)C(C)C)[nH]3)cc21` [Example 42, methyl ((S)-1-((S)-2-(5-(9,9-dibutyl-7-((2S,4S)-1-((R)-2-((methoxycarbonyl)amino)-2-phenylacetyl)-4-(methoxymethyl)pyrrolidine-2-carboxyamido)-9H-fluorene-2-yl)-1H-imidazole-2-yl)pyrrolidine-1-yl)-3-methyl-1-oxobutane-2-yl)carbamate], the EC50 in assay [1] lay within 0.01 to 0.1 nM; in assay [2] it was 0.1 to 1 nM; in assay [3], 0.001 to 0.01 nM; in assay [4], 0.1 to 1 nM; in assay [5], 1 to 100 nM; in assay [6], 0.01 to 0.1 nM.
Consider `CCCCC1(CCCC)c2cc(NC(=O)[C@@H]3C[C@@H](OCCOC)CN3C(=O)[C@H](NC(=O)OC)c3ccccc3)ccc2-c2ccc(NC(=O)[C@@H]3C[C@@H](OCCOC)CN3C(=O)[C@H](NC(=O)OC)c3ccccc3)cc21` [Example 34, dimethyl (1R,1′R)-2,2′-((3R,3′R,5S,5′S)-5,5′-(9,9-dibutyl-9H-fluorene-2,7-diyl)bis(azanediyl)bis(oxomethylene)bis(3-(2-methoxyethoxy)pyrrolidine-5,1-diyl))bis(2-oxo-1-phenylethane-2,1-diyl)dicarbamate], for which the EC50 lay in the range of 0.01 to 0.1 nM in assay [1]; 1 to 100 nM in assay [2]; 0.01 to 0.1 nM in assay [3]; 1 to 100 nM in assay [4]; 1 to 100 nM in assay [5]; 0.1 to 1 nM in assay [6].
For the compound `CCCCC1(CCCC)c2cc(NC(=O)[C@@H]3C[C@H]4CCC[C@H]4N3C(=O)[C@H](NC(=O)OC)c3ccccc3)ccc2-c2ccc(NC(=O)[C@@H]3C[C@H]4CCC[C@H]4N3C(=O)[C@H](NC(=O)OC)c3ccccc3)cc21` [Example 22, dimethyl ((1R,1′R)-((2S,2′S,3aR,3a′R,6aR,6a′R)-(((9,9-dibutyl-9H-fluorene-2,7-diyl)bis(azanediyl))bis(carbonyl))bis(hexahydrocyclopenta[b]pyrrole-2,1(2H)-diyl))bis(2-oxo-1-phenylethane-2,1-diyl))dicarbamate], the EC50 in assay [1] is 0.01 to 0.1 nM; in assay [2] it was 0.01 to 0.1 nM; in assay [3], 0.001 to 0.01 nM; in assay [4], 1 to 100 nM; in assay [5], greater than 100 nM; in assay [6] it was 0.001 to 0.01 nM.
On to `CCCCC1(CCCC)c2cc(NC(=O)[C@@H]3C[C@H](COC)CN3C(=O)[C@H](NC(=O)OC)c3ccccc3)ccc2-c2ccc(NC(=O)[C@@H]3C[C@H](COC)CN3C(=O)[C@H](NC(=O)OC)c3ccccc3)cc21` [Example 36, dimethyl (1R,1′R)-2,2′-((3S,3′S,5S,5′S)-5,5′-(9,9-dibutyl-9H-fluorene-2,7-diyl)bis(azanediyl)bis(oxomethylene)bis(3-(methoxymethyl)pyrrolidine-5,1-diyl))bis(2-oxo-1-phenylethane-2,1-diyl)dicarbamate], for which the EC50 in assay [1] lay within 0.001 to 0.01 nM; in assay [2], 0.01 to 0.1 nM; in assay [3], 0.001 to 0.01 nM; in assay [4], 0.1 to 1 nM; in assay [5], 0.1 to 1 nM; in assay [6], 0.001 to 0.01 nM.
`CCCCCC1(CCCCC)c2cc(NC(=O)[C@@H]3CCCN3C(=O)[C@H](NC(=O)OC)c3ccccc3)ccc2-c2ccc(NC(=O)[C@@H]3CC4(CN3C(=O)[C@H](NC(=O)OC)c3ccccc3)OCCO4)cc21` [Example 12, methyl ((R)-2-((S)-2-((7-((S)-7-((R)-2-((methoxycarbonyl)amino)-2-phenylacetyl)-1,4-dioxa-7-azaspiro[4.4]nonane-8-carboxamido)-9,9-dipentyl-9H-fluorene-2-yl)carbamoyl)pyrrolidine-1-yl)-2-oxo-1-phenylethyl)carbamate]: the EC50 in assay [1] lay in the range of 0.1 to 1 nM; in assay [2] it was 0.01 to 0.1 nM; in assay [3], 0.001 to 0.01 nM; in assay [4], 1 to 100 nM; in assay [5] it was 1 to 100 nM; in assay [6] it was 0.001 to 0.01 nM.
Turning to `CCCCC1(CCCC)c2cc(NC(=O)[C@@H]3CC4(CN3C(=O)[C@H](NC(=O)OC)c3ccccc3)OCCO4)ccc2-c2ccc(-c3cnc([C@@H]4CCCN4C(=O)[C@@H](NC(=O)OC)C(C)C)[nH]3)cc21` [Example 14, methyl ((S)-1-((S)-2-(5-(9,9-dibutyl-7-((S)-7-((R)-2-((methoxycarbonyl)amino)-2-phenylacetyl)-1,4-dioxa-7-azaspiro[4.4]nonane-8-carboxyamido)-9H-fluorene-2-yl)-1H-imidazole-2-yl)pyrrolidine-1-yl)-3-methyl-1-oxobutane-2-yl)carbamate], the EC50 in assay [1] is 0.001 to 0.01 nM; in assay [2], 0.01 to 0.1 nM; in assay [3] it was 0.001 to 0.01 nM; in assay [4] it was 0.01 to 0.1 nM; in assay [5] it was 1 to 100 nM; in assay [6], 0.001 to 0.01 nM.
Consider `CCCCC1(CCCC)c2cc(NC(=O)[C@@H]3CCCN3C(=O)[C@H](NC(=O)OC)c3ccccc3)ccc2-c2ccc(-c3cnc([C@@H]4CCCN4C(=O)[C@@H](NC(=O)OC)C(C)C)[nH]3)cc21` [Example 9, methyl ((S)-1-((S)-2-(5-(9,9-dibutyl-7-((S)-1-((R)-2-((methoxycarbonyl)amino)-2-phenylacetyl)pyrrolidine-2-carboxyamido)-9H-fluorene-2-yl)-1H-imidazole-2-yl)pyrrolidine-1-yl)-3-methyl-1-oxobutane-2-yl)carbamate], for which the EC50 in assay [1] lay in the range of 0.01 to 0.1 nM; in assay [2] it was 0.01 to 0.1 nM; in assay [3], 0.01 to 0.1 nM; in assay [4] it was 0.01 to 0.1 nM; in assay [5] it was 0.1 to 1 nM; in assay [6], 0.001 to 0.01 nM.
As for `CCCC1(CCC)c2cc(NC(=O)[C@@H]3CCCN3C(=O)[C@H](NC(=O)OC)c3ccccc3)ccc2-c2ccc(-c3cnc([C@@H]4CCCN4C(=O)[C@@H](NC(=O)OC)C(C)C)[nH]3)cc21` [Example 3, methyl ((S)-1-((S)-2-(5-(9,9-dipropyl-7-((S)-1-((R)-2-((methoxycarbonyl)amino)-2-phenylacetyl)pyrrolidine-2-carboxyamido)-9H-fluorene-2-yl)-1H-imidazole-2-yl)pyrrolidine-1-yl)-3-methyl-1-oxobutane-2-yl)carbamate], the EC50 lay in the range of 0.01 to 0.1 nM in assay [1]; 0.01 to 0.1 nM in assay [2]; 0.01 to 0.1 nM in assay [3]; 0.01 to 0.1 nM in assay [4]; 1 to 100 nM in assay [5]; 0.01 to 0.1 nM in assay [6].
Consider `CCCCC1(CCCC)c2cc(NC(=O)[C@@H]3C[C@@H](OC(=O)CN4CCOCC4)CN3C(=O)[C@H](NC(=O)OC)c3ccccc3)ccc2-c2ccc(NC(=O)[C@@H]3C[C@@H](OC(=O)CN4CCOCC4)CN3C(=O)[C@H](NC(=O)OC)c3ccccc3)cc21` [Example 33, (3R,3′R,5S,5S,52R)-5,5′-(9,9-dibutyl-9H-fluorene-2,7-diyl)bis(azanediyl)bis(oxomethylene)bis(1-((R)-2-(methoxycarbonylamino)-2-phenylacetyl)pyrrolidine-5,3-diyl) bis(2-morpholinoacetate)], for which the EC50 was in the range of 0.01 to 0.1 nM in assay [1]; 0.1 to 1 nM in assay [2]; 0.01 to 0.1 nM in assay [3]; 0.1 to 1 nM in assay [4]; 0.1 to 1 nM in assay [5]; 0.01 to 0.1 nM in assay [6].
